# Laboratory results as given in patent US9815832B2 (priority 2013, dated 2017).
# Where a name gives a salt, the structure may show the parent alone.
# Molecular target: human recombinant PDE4B (Homo sapiens (Human), UniProt Q07343, S133E/S654A/S659A/S661A)
# Details: read-out: Human PDE4B FL
# Description: Reactions are incubated for 30 min at 25° C. The addition of 20 μL of 8 mg/mL yitrium silicate SPA beads (PerkinElmer) stops the reaction. The plates are sealed (TopSeal, PerkinElmer) and the beads are allowed to settle for 8 hrs, after which they are read on the Trilux Microbeta overnight.
# Chain of human recombinant PDE4B (Q07343 122-736 S133E/S654A/S659A/S661A): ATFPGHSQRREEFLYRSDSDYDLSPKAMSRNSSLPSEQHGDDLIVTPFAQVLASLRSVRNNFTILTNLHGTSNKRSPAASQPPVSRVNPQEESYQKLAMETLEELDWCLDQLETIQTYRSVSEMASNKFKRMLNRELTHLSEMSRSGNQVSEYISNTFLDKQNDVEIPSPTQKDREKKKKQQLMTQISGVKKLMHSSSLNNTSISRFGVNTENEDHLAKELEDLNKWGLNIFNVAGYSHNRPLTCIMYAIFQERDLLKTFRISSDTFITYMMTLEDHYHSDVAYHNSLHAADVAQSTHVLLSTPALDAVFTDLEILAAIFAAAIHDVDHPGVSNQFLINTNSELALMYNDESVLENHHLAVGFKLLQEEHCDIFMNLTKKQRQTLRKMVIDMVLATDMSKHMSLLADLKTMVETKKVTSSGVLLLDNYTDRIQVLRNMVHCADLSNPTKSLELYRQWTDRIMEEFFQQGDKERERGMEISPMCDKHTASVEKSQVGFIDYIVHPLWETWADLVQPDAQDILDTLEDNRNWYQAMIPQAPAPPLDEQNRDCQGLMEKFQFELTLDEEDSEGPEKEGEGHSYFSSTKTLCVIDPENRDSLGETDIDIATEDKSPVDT
row,Structure (SMILES),IC50
1,"O=C(NC1CC1)c1nc2cccnc2n1-c1cc(F)c(F)c(F)c1 [Example 30, N-Cyclopropyl-3-(3,4,5-trifluorophenyl)-3H-imidazo[4,5-b]pyridine-2-carboxamide, trifluoroacetate salt]",5.77 nM
2,"Cc1cc(Cl)ccc1-n1c(C(=O)N2CCC2)nc2cccnc21 [Example 34, Azetidin-1-yl[3-(4-chloro-2-methylphenyl)-3H-imidazo[4,5-b]pyridin-2-yl]methanone]",399 nM
3,"Cc1cc(Cl)ccc1-n1c(C(=O)N2CC(F)C2)nc2cccnc21 [Example 35, [3-(4-Chloro-2-methylphenyl)-3H-imidazo[4,5-b]pyridin-2-yl](3-fluoroazetidin-1-yl)methanone]",1130 nM
4,"O=C(NC1CC1)c1nc2cccnc2n1-c1cncc(Cl)c1 [Example 37, 3-(5-Chloropyridin-3-yl)-N-cyclopropyl-3H-imidazo[4,5-b]pyridine-2-carboxamide]",409 nM
5,"O=C(c1nc2cccnc2n1-c1cncc(Cl)c1)N1CCC1 [Example 38, Azetidin-1-yl[3-(5-chloropyridin-3-yl)-3H-imidazo[4,5-b]pyridin-2-yl]methanone]",466 nM
6,"N#Cc1ccc(-n2c(C(=O)NC3CC3)nc3cccnc32)cn1 [Example 39, 3-(6-Cyanopyridin-3-yl)-N-cyclopropyl-3H-imidazo[4,5-b]pyridine-2-carboxamide]",363 nM
7,"N#Cc1ccc(-n2c(C(=O)NC3CC3)nc3cccnc32)cc1 [Example 42, 3-(4-Cyanophenyl)-N-cyclopropyl-3H-imidazo[4,5-b]pyridine-2-carboxamide]",276 nM
8,"O=C(NC1CC1)c1nc2cccnc2n1-c1ccc(F)cc1F [Example 43, N-Cyclopropyl-3-(2,4-difluorophenyl)-3H-imidazo[4,5-b]pyridine-2-carboxamide]",927 nM
9,"Cc1ccc(F)cc1-n1c(C(=O)NC2CC2)nc2cccnc21 [Example 44, N-Cyclopropyl-3-(5-fluoro-2-methylphenyl)-3H-imidazo[4,5-b]pyridine-2-carboxamide]",1660 nM
10,"O=C(NC1CC1)c1nc2cccnc2n1C1Cc2ccccc2C1 [Example 47, N-Cyclopropyl-3-(2,3-dihydro-1H-inden-2-yl)-3H-imidazo[4,5-b]pyridine-2-carboxamide]",1260 nM
11,"COc1cc(-n2c(C(=O)NC3CC3)nc3cccnc32)ccc1C [Example 50, N-Cyclopropyl-3-(3-methoxy-4-methylphenyl)-3H-imidazo[4,5-b]pyridine-2-carboxamide]",339 nM
12,"N#Cc1cccc(-n2c(C(=O)NC3CC3)nc3cccnc32)c1 [Example 53, 3-(3-Cyanophenyl)-N-cyclopropyl-3H-imidazo[4,5-b]pyridine-2-carboxamide]",287 nM
13,"COc1cc(-n2c(C(=O)NC3CC3)nc3cccnc32)ccc1F [Example 55, N-Cyclopropyl-3-(4-fluoro-3-methoxyphenyl)-3H-imidazo[4,5-b]pyridine-2-carboxamide]",304 nM
14,"O=C(NC1CC1)c1nc2cccnc2n1-c1ccccc1 [Example 57, N-Cyclopropyl-3-phenyl-3H-imidazo[4,5-b]pyridine-2-carboxamide]",1160 nM
15,"COc1ccc(-n2c(C(=O)NC3CC3)nc3cccnc32)cc1 [Example 58, N-Cyclopropyl-3-(4-methoxyphenyl)-3H-imidazo[4,5-b]pyridine-2-carboxamide]",506 nM
16,"Cc1ccc(-n2c(C(=O)NC3CC3)nc3cccnc32)c(C)c1 [Example 59, N-Cyclopropyl-3-(2,4-dimethylphenyl)-3H-imidazo[4,5-b]pyridine-2-carboxamide]",1020 nM
17,"Cc1cc(F)ccc1-n1c(C(=O)NC2CC2)nc2cccnc21 [Example 60, N-Cyclopropyl-3-(4-fluoro-2-methylphenyl)-3H-imidazo[4,5-b]pyridine-2-carboxamide]",1200 nM
18,"O=C(NC1CC1)c1nc2cccnc2n1-c1ccc2c(c1)COC2 [Example 61, N-Cyclopropyl-3-(1,3-dihydro-2-benzofuran-5-yl)-3H-imidazo[4,5-b]pyridine-2-carboxamide]",1580 nM
19,"O=C(NC1CC1)c1nc2cccnc2n1-c1ccc(F)c(F)c1 [Example 62, N-Cyclopropyl-3-(3,4-difluorophenyl)-3H-imidazo[4,5-b]pyridine-2-carboxamide]",34.9 nM
20,"O=C(NC1CC1)c1nc2cccnc2n1-c1cc(Cl)cc(Cl)c1 [Example 63, N-Cyclopropyl-3-(3,5-dichlorophenyl)-3H-imidazo[4,5-b]pyridine-2-carboxamide]",68 nM
21,"O=C(NC1CC1)c1nc2cccnc2n1-c1ccc2c(c1)CCC2 [Example 64, N-Cyclopropyl-3-(2,3-dihydro-1H-inden-5-yl)-3H-imidazo[4,5-b]pyridine-2-carboxamide]",206 nM

row,Structure (SMILES),IC50
1,"O=C(NC1CC1)c1nc2cccnc2n1-c1cccc(F)c1 [Example 65, N-Cyclopropyl-3-(3-fluorophenyl)-3H-imidazo[4,5-b]pyridine-2-carboxamide]",188 nM
2,"Cc1ccc(-n2c(C(=O)NC3CC3)nc3cccnc32)c(F)c1 [Example 67, N-Cyclopropyl-3-(2-fluoro-4-methylphenyl)-3H-imidazo[4,5-b]pyridine-2-carboxamide]",619 nM
3,"Cc1cccc(-n2c(C(=O)NC3CC3)nc3cccnc32)c1 [Example 70, N-Cyclopropyl-3-(3-methylphenyl)-3H-imidazo[4,5-b]pyridine-2-carboxamide]",421 nM
4,"O=C(NC1CC1)c1nc2cccnc2n1-c1ccc2ncsc2c1 [Example 71, 3-(1,3-Benzothiazol-6-yl)-N-cyclopropyl-3H-imidazo[4,5-b]pyridine-2-carboxamide]",155 nM
5,"Cc1nc2ccc(-n3c(C(=O)NC4CC4)nc4cccnc43)cc2s1 [Example 73, N-Cyclopropyl-3-(2-methyl-1,3-benzothiazol-6-yl)-3H-imidazo[4,5-b]pyridine-2-carboxamide]",516 nM
6,"Cc1cc(C)cc(-n2c(C(=O)NC3CC3)nc3cccnc32)c1 [Example 76, N-Cyclopropyl-3-(3,5-dimethylphenyl)-3H-imidazo[4,5-b]pyridine-2-carboxamide]",374 nM
7,"O=C(NC1CC1)c1nc2cccnc2n1-c1cccc(Cl)c1F [Example 78, 3-(3-Chloro-2-fluorophenyl)-N-cyclopropyl-3H-imidazo[4,5-b]pyridine-2-carboxamide, trifluoroacetate salt]",387 nM
8,"O=C(NC1CC1)c1nc2cccnc2n1-c1ccc2ncccc2c1 [Example 80, N-Cyclopropyl-3-(quinolin-6-yl)-3H-imidazo[4,5-b]pyridine-2-carboxamide, trifluoroacetate salt]",1470 nM
9,"CCNC(=O)c1nc2cccnc2n1-c1cncc(Cl)c1 [Example 81, 3-(5-Chloropyridin-3-yl)-N-ethyl-3H-imidazo[4,5-b]pyridine-2-carboxamide]",8270 nM
10,"O=C(NC1CC1)c1nc2cccnc2n1-c1ccnc(C(F)(F)F)c1 [Example 82, N-Cyclopropyl-3-[2-(trifluoromethyl)pyridin-4-yl]-3H-imidazo[4,5-b]pyridine-2-carboxamide]",6070 nM
11,"COc1cncc(-n2c(C(=O)NC3CC3)nc3cccnc32)c1 [Example 83, N-Cyclopropyl-3-(5-methoxypyridin-3-yl)-3H-imidazo[4,5-b]pyridine-2-carboxamide]",13600 nM
12,"Cc1cc(-n2c(C(=O)NC3CC3)nc3cccnc32)c(Cl)cc1F [Example 84, 3-(2-Chloro-4-fluoro-5-methylphenyl)-N-cyclopropyl-3H-imidazo[4,5-b]pyridine-2-carboxamide]",16600 nM
13,"Cc1ccc(-n2c(C(=O)NC3CC3)nc3cccnc32)cn1 [Example 85, N-Cyclopropyl-3-(6-methylpyridin-3-yl)-3H-imidazo[4,5-b]pyridine-2-carboxamide]",7730 nM
14,"Cn1ncc2ccc(-n3c(C(=O)NC4CC4)nc4cccnc43)cc21 [Example 86, N-Cyclopropyl-3-(1-methyl-1H-indazol-6-yl)-3H-imidazo[4,5-b]pyridine-2-carboxamide]",24500 nM
15,"COc1ccc(-n2c(C(=O)NC3CC3)nc3cccnc32)cc1OC [Example 87, N-Cyclopropyl-3-(3,4-dimethoxyphenyl)-3H-imidazo[4,5-b]pyridine-2-carboxamide]",2720 nM
16,"Cc1ccc(-n2c(C(=O)NC3CC3)nc3cccnc32)c(Cl)c1 [Example 88, 3-(2-Chloro-4-methylphenyl)-N-cyclopropyl-3H-imidazo[4,5-b]pyridine-2-carboxamide]",3700 nM
17,"COc1ccc(-n2c(C(=O)NC3CC3)nc3cccnc32)c(C)c1 [Example 89, N-Cyclopropyl-3-(4-methoxy-2-methylphenyl)-3H-imidazo[4,5-b]pyridine-2-carboxamide]",3520 nM
18,"O=C(NC1CC1)c1nc2cccnc2n1-c1cc(F)ccc1Cl [Example 90, 3-(2-Chloro-5-fluorophenyl)-N-cyclopropyl-3H-imidazo[4,5-b]pyridine-2-carboxamide]",9230 nM
19,"Cc1ccc(Cl)c(-n2c(C(=O)NC3CC3)nc3cccnc32)c1 [Example 91, 3-(2-Chloro-5-methylphenyl)-N-cyclopropyl-3H-imidazo[4,5-b]pyridine-2-carboxamide]",9420 nM
20,"O=C(NC1CC1)c1nc2cccnc2n1-c1ccc(C(F)(F)F)cc1 [Example 92, N-Cyclopropyl-3-[4-(trifluoromethyl)phenyl]-3H-imidazo[4,5-b]pyridine-2-carboxamide]",3110 nM
